According to US10206394B2, “Herbicidal compounds” (Syngenta Participations AG, priority 2014, dated 2019):
Read-outs that look alike come from different tables or passages of the source.

What was measured:
Assay in all cases: Glasshouse assay for herbicidal activity (pre- and post-emergence), percentage phytotoxicity
Type in all cases: in vivo
[1] = system: Alopecurus myosuroides (ALOMY); details: Alopecurus myosuroides, Rate 250 g/ha, 100%=total damage, 0%=no damage
Summary of the method: (§1)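 Herbicide was applied to potted plants sown in standard soil, one day after sowing for PRE and after about 12 days for POST. Visual percentage damage ratings followed at 15 DAA (POST) and 20 DAA (PRE).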

Avena fatua (AVEFA) = details: Avena fatua, Rate 250 g/ha, 100%=total damage, 0%=no damage
Summary of the method: as §1

[2] = system: Echinochloa crus-galli (ECHCG); details: Echinochloa crus-galli, Rate 250 g/ha, 100%=total damage, 0%=no damage
Summary of the method: as §1

Lolium perenne (LOLPE) = details: Lolium perenne, Rate 250 g/ha, 100%=total damage, 0%=no damage
Summary of the method: as §1

[3] = post-emergence, 360 h, post-emergence, visual assessment 15 DAA, read-out: Post-emergence herbicidal activity (percentage phytotoxicity) ALOMY POST
[4] = pre-emergence, 480 h, pre-emergence, visual assessment 20 DAA, read-out: Pre-emergence herbicidal activity (percentage phytotoxicity) ALOMY PRE
[5] = post-emergence, 360 h, post-emergence, visual assessment 15 DAA, read-out: Post-emergence herbicidal activity (percentage phytotoxicity) AVEFA POST
[6] = pre-emergence, 480 h, pre-emergence, visual assessment 20 DAA, read-out: Pre-emergence herbicidal activity (percentage phytotoxicity) AVEFA PRE
[7] = post-emergence, 360 h, post-emergence, visual assessment 15 DAA, read-out: Post-emergence herbicidal activity (percentage phytotoxicity) ECHCG POST
[8] = pre-emergence, 480 h, pre-emergence, visual assessment 20 DAA, read-out: Pre-emergence herbicidal activity (percentage phytotoxicity) ECHCG PRE
[9] = post-emergence, 360 h, post-emergence, visual assessment 15 DAA, read-out: Post-emergence herbicidal activity (percentage phytotoxicity) LOLPE POST
[10] = pre-emergence, 480 h, pre-emergence, visual assessment 20 DAA, read-out: Pre-emergence herbicidal activity (percentage phytotoxicity) LOLPE PRE

Cc1cc(-c2ncc(Cl)cn2)cc(C)c1C1C(=O)CC(CC(=O)N(C)C(C)(C)C)C1=O (stereo not shown) [Compound B348]
pest or weed control at 250 g/ha [1, 3]: 100%
pest or weed control at 250 g/ha [1, 4]: 80%
pest or weed control at 250 g/ha (Avena fatua (AVEFA); [5]): 100%
pest or weed control at 250 g/ha (Avena fatua (AVEFA); [6]): 80%
pest or weed control at 250 g/ha [2, 7]: 100%
pest or weed control at 250 g/ha [2, 8]: 100%
pest or weed control at 250 g/ha (Lolium perenne (LOLPE); [9]): 100%
pest or weed control at 250 g/ha (Lolium perenne (LOLPE); [10]): 90%

C#CCN(C)C(=O)CC1CC(=O)C(c2c(C)cc(-c3ncc(Cl)cn3)cc2C)C1=O (stereo not shown) [Compound B349]
pest or weed control at 250 g/ha [1, 3]: 100%
pest or weed control at 250 g/ha [1, 4]: 100%
pest or weed control at 250 g/ha (Avena fatua (AVEFA); [5]): 100%
pest or weed control at 250 g/ha (Avena fatua (AVEFA); [6]): 90%
pest or weed control at 250 g/ha [2, 7]: 100%
pest or weed control at 250 g/ha [2, 8]: 90%
pest or weed control at 250 g/ha (Lolium perenne (LOLPE); [9]): 100%
pest or weed control at 250 g/ha (Lolium perenne (LOLPE); [10]): 90%

C=CCNC(=O)CC1CC(=O)C(c2c(C)cc(-c3ncc(Cl)cn3)cc2C)C1=O (stereo not shown) [Compound B350]
pest or weed control at 250 g/ha [1, 3]: 100%
pest or weed control at 250 g/ha [1, 4]: 100%
pest or weed control at 250 g/ha (Avena fatua (AVEFA); [5]): 100%
pest or weed control at 250 g/ha (Avena fatua (AVEFA); [6]): 90%
pest or weed control at 250 g/ha [2, 7]: 100%
pest or weed control at 250 g/ha [2, 8]: 100%
pest or weed control at 250 g/ha (Lolium perenne (LOLPE); [9]): 100%
pest or weed control at 250 g/ha (Lolium perenne (LOLPE); [10]): 100%

Cc1cc(-c2ncc(Cl)cn2)cc(C)c1C1C(=O)CC(CC(=O)N(C)C(C)C)C1=O (stereo not shown) [Compound B351]
pest or weed control at 250 g/ha [1, 3]: 100%
pest or weed control at 250 g/ha [1, 4]: 100%
pest or weed control at 250 g/ha (Avena fatua (AVEFA); [5]): 100%
pest or weed control at 250 g/ha (Avena fatua (AVEFA); [6]): 90%
pest or weed control at 250 g/ha [2, 7]: 100%
pest or weed control at 250 g/ha [2, 8]: 100%
pest or weed control at 250 g/ha (Lolium perenne (LOLPE); [9]): 100%
pest or weed control at 250 g/ha (Lolium perenne (LOLPE); [10]): 100%

Cc1cc(-c2ncc(Cl)cn2)cc(C)c1C1C(=O)CC(CC(=O)NC/C=C/Cl)C1=O (stereo not shown) [Compound B352]
pest or weed control at 250 g/ha [1, 3]: 100%
pest or weed control at 250 g/ha [1, 4]: 100%
pest or weed control at 250 g/ha (Avena fatua (AVEFA); [5]): 90%
pest or weed control at 250 g/ha (Avena fatua (AVEFA); [6]): 90%
pest or weed control at 250 g/ha [2, 7]: 100%
pest or weed control at 250 g/ha [2, 8]: 100%
pest or weed control at 250 g/ha (Lolium perenne (LOLPE); [9]): 100%
pest or weed control at 250 g/ha (Lolium perenne (LOLPE); [10]): 90%

Cc1cc(-c2ncc(Cl)cn2)cc(C)c1C1C(=O)CC(CC(=O)NCc2cccs2)C1=O (stereo not shown) [Compound B353]
pest or weed control at 250 g/ha [1, 3]: 90%
pest or weed control at 250 g/ha [1, 4]: 80%
pest or weed control at 250 g/ha (Avena fatua (AVEFA); [5]): 100%
pest or weed control at 250 g/ha (Avena fatua (AVEFA); [6]): 90%
pest or weed control at 250 g/ha [2, 7]: 100%
pest or weed control at 250 g/ha [2, 8]: 100%
pest or weed control at 250 g/ha (Lolium perenne (LOLPE); [9]): 100%
pest or weed control at 250 g/ha (Lolium perenne (LOLPE); [10]): 90%

Cc1cc(-c2ncc(Cl)cn2)cc(C)c1C1C(=O)CC(CC(=O)NCc2cccc(Cl)c2)C1=O (stereo not shown) [Compound B354]
pest or weed control at 250 g/ha [1, 3]: 90%
pest or weed control at 250 g/ha [1, 4]: 70%
pest or weed control at 250 g/ha (Avena fatua (AVEFA); [5]): 100%
pest or weed control at 250 g/ha (Avena fatua (AVEFA); [6]): 80%
pest or weed control at 250 g/ha [2, 7]: 100%
pest or weed control at 250 g/ha [2, 8]: 90%
pest or weed control at 250 g/ha (Lolium perenne (LOLPE); [9]): 90%
pest or weed control at 250 g/ha (Lolium perenne (LOLPE); [10]): 80%

Cc1ccc(CNC(=O)CC2CC(=O)C(c3c(C)cc(-c4ncc(Cl)cn4)cc3C)C2=O)cc1 (stereo not shown) [Compound B355]
pest or weed control at 250 g/ha [1, 3]: 80%
pest or weed control at 250 g/ha [1, 4]: 50%
pest or weed control at 250 g/ha (Avena fatua (AVEFA); [5]): 90%
pest or weed control at 250 g/ha (Avena fatua (AVEFA); [6]): 70%
pest or weed control at 250 g/ha [2, 7]: 100%
pest or weed control at 250 g/ha [2, 8]: 90%
pest or weed control at 250 g/ha (Lolium perenne (LOLPE); [9]): 100%
pest or weed control at 250 g/ha (Lolium perenne (LOLPE); [10]): 70%

COc1ccc(CNC(=O)CC2CC(=O)C(c3c(C)cc(-c4ncc(Cl)cn4)cc3C)C2=O)cc1 (stereo not shown) [Compound B356]
pest or weed control at 250 g/ha [1, 3]: 90%
pest or weed control at 250 g/ha [1, 4]: 60%
pest or weed control at 250 g/ha (Avena fatua (AVEFA); [5]): 100%
pest or weed control at 250 g/ha (Avena fatua (AVEFA); [6]): 60%
pest or weed control at 250 g/ha [2, 7]: 100%
pest or weed control at 250 g/ha [2, 8]: 100%
pest or weed control at 250 g/ha (Lolium perenne (LOLPE); [9]): 100%
pest or weed control at 250 g/ha (Lolium perenne (LOLPE); [10]): 80%

Cc1cc(-c2ccc(Cl)cn2)cc(C)c1C1C(=O)CC(CC(=O)NCc2cccc(F)c2)C1=O (stereo not shown) [Compound B357]
pest or weed control at 250 g/ha [1, 3]: 90%
pest or weed control at 250 g/ha [1, 4]: 80%
pest or weed control at 250 g/ha (Avena fatua (AVEFA); [5]): 100%
pest or weed control at 250 g/ha (Avena fatua (AVEFA); [6]): 90%
pest or weed control at 250 g/ha [2, 7]: 100%
pest or weed control at 250 g/ha [2, 8]: 100%
pest or weed control at 250 g/ha (Lolium perenne (LOLPE); [9]): 90%
pest or weed control at 250 g/ha (Lolium perenne (LOLPE); [10]): 100%

Cc1cc(-c2ccc(Cl)cn2)cc(C)c1C1C(=O)CC(CC(=O)N(C)Cc2cccc(F)c2)C1=O (stereo not shown) [Compound B358]
pest or weed control at 250 g/ha [1, 3]: 100%
pest or weed control at 250 g/ha [1, 4]: 90%
pest or weed control at 250 g/ha (Avena fatua (AVEFA); [5]): 100%
pest or weed control at 250 g/ha (Avena fatua (AVEFA); [6]): 100%
pest or weed control at 250 g/ha [2, 7]: 100%
pest or weed control at 250 g/ha [2, 8]: 100%
pest or weed control at 250 g/ha (Lolium perenne (LOLPE); [9]): 90%
pest or weed control at 250 g/ha (Lolium perenne (LOLPE); [10]): 90%
